# Experimental data taken from US11512090B2, “Muscarinic acetylcholine M1 receptor antagonists” (PIPELINE THERAPEUTICS, INC., priority 2018, dated 2022).
# pIC50: −log10 of the molar value. Read-outs that look alike come from different tables or passages of the source.
# How the values were obtained:
# Format in all cases: cell-based
# human M1 receptor = molecular target: T1, human M1 receptor (Homo sapiens, UniProt P11229); experiment: In vitro functional assay of muscarinic acetylcholine receptor activity (aequorin calcium flux, antagonist mode vs EC80 acetylcholine), M1
# T1 sequence (P11229 1-460): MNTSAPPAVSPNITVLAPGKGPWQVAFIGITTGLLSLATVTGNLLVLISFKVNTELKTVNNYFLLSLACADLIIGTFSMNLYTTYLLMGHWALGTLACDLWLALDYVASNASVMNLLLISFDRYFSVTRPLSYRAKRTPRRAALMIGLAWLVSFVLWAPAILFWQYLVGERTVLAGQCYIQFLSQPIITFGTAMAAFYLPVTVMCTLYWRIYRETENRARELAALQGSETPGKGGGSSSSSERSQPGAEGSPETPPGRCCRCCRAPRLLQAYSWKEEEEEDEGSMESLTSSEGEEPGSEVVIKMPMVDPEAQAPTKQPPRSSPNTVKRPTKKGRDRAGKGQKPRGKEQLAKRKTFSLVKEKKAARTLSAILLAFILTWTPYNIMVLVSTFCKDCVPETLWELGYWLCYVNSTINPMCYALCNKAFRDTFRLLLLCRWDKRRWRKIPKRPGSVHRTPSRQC
# How it was run: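 Antagonism at M1 was measured as a concentration-dependent reduction of the EC80 acetylcholine-evoked aequorin luminescence, from which IC50 was derived. Human M1 CHO-K1 aequorin cells were first loaded with 5 uM coelenterazine h for 4 h and exposed to compound for 30 min at room temperature.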
# M2 = molecular target: T2, M2 (Homo sapiens, UniProt P08172); experiment: In vitro functional assay of muscarinic acetylcholine receptor activity, M2
# T2 sequence (P08172 1-466): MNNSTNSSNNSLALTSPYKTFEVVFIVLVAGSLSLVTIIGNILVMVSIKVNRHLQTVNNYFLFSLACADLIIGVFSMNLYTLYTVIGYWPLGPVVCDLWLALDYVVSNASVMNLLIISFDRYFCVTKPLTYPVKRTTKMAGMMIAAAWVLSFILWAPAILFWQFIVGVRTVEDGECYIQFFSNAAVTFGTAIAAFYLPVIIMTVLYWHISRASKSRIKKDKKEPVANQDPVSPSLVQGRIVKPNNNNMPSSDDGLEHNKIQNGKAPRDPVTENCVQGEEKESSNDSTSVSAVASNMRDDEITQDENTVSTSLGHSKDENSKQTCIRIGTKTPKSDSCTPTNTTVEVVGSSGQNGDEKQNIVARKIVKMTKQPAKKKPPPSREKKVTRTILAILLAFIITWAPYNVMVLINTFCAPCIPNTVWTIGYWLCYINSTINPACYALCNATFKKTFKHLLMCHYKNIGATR
# M3 = M3 (Homo sapiens, UniProt P20309); experiment: In vitro functional assay of muscarinic acetylcholine receptor activity, M3; conditions: antagonist IC50 at M3; read-out: M3 IC50
# Sequence of M3 (P20309 whole entry): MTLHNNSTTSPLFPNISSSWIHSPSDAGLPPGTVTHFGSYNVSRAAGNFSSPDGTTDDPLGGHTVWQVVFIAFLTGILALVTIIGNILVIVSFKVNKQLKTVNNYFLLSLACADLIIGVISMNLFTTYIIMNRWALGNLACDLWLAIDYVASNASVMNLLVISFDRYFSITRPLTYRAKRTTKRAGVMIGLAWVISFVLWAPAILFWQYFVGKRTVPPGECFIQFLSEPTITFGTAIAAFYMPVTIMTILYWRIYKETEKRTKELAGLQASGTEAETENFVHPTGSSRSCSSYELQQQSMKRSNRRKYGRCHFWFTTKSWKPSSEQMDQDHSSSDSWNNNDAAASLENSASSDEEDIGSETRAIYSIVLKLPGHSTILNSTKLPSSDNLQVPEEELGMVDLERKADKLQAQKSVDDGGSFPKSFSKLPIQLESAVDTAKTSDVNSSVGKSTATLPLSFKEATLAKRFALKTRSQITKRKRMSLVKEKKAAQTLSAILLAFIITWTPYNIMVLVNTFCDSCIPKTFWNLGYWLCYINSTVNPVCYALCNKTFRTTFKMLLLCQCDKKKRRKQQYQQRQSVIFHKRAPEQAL
# [1] = CHO-K1 cells stably expressing human M1 receptor with Aequorin, decrease in EC80 acetylcholine response, read-out: M1 IC50
# [2] = antagonist IC50 at M2, read-out: M2 IC50
pIC50 (human M1 receptor; [1]),pIC50 (M2; [2]),pIC50 (M3),Compound,pIC50 (human M1 receptor),pIC50 (M2)
> 7.00,> 7.00,6.00 to 7.00,"Cc1cc(Cl)cnc1N1CCN(C(=O)CCCc2cccc3ncccc23)[C@H](C)C1 [Example 79, (R)-1-(4-(5-chloro-3-methylpyridin-2-yl)-2-methylpiperazin-1-yl)-4-(quinolin-5-yl)butan-1-one]",,
> 7.00,6.00 to 7.00,5.00 to 6.00,"Cc1cc(F)cnc1N1CCN(C(=O)CCCc2cccc3ncsc23)[C@@H](C)C1 [Example 81, (S)-4-(benzo[d]thiazol-7-yl)-1-(4-(5-fluoro-3-methylpyridin-2-yl)-2-methylpiperazin-1-yl)butan-1-one]",,
> 7.00,5.00 to 6.00,5.00 to 6.00,"Cc1cc(F)cnc1N1CCN(C(=O)CCCc2cccc3ncncc23)[C@@H](C)C1 [Example 82, (S)-1-(4-(5-fluoro-3-methylpyridin-2-yl)-2-methylpiperazin-1-yl)-4-(quinazolin-5-yl)butan-1-one]",,
5.00 to 6.00,< 5.00,< 5.00,"Cc1cc(F)cnc1N1CCN(C(=O)CCCc2cccc3nccn23)[C@@H](C)C1 [Example 84, (S)-1-(4-(5-fluoro-3-methylpyridin-2-yl)-2-methylpiperazin-1-yl)-4-(imidazo[1,2-a]pyridin-5-yl)butan-1-one]",,
5.00 to 6.00,5.00 to 6.00,5.00 to 6.00,"Cc1cc(F)cnc1N1CCN(C(=O)COCc2cccc3ncccc23)[C@@H](C)C1 [Example 87, (S)-1-(4-(5-fluoro-3-methylpyridin-2-yl)-2-methylpiperazin-1-yl)-2-(quinolin-5-ylmethoxy)ethan-1-one]",,
6.00 to 7.00,5.00 to 6.00,5.00 to 6.00,"C[C@H]1CN(c2ncc(F)cc2F)CCN1C(=O)CCCc1cccc2ncccc12 [Example 91, (S)-1-(4-(3,5-difluoropyridin-2-yl)-2-methylpiperazin-1-yl)-4-(quinolin-5-yl)butan-1-one]",,
6.00 to 7.00,6.00 to 7.00,5.00 to 6.00,"Cc1cc(F)cnc1N1CCN(C(=O)CCCc2cccc3ncc(CO)cc23)[C@@H](C)C1 [Example 94, (S)-1-(4-(5-fluoro-3-methylpyridin-2-yl)-2-methylpiperazin-1-yl)-4-(3-(hydroxymethyl)quinolin-5-yl)butan-1-one]",,
6.00 to 7.00,5.00 to 6.00,< 5.00,"Cc1cc(F)cnc1N1CCN(C(=O)CCS(=O)(=O)c2cccc3ncccc23)[C@@H](C)C1 [Example 96, (S)-1-(4-(5-fluoro-3-methylpyridin-2-yl)-2-methylpiperazin-1-yl)-3-(quinolin-5-ylsulfonyl)propan-1-one]",,

# The remaining lines, values behind:
Compound,pIC50 (human M1 receptor; [1]),pIC50 (M2; [2]),pIC50 (M3),pIC50 (human M1 receptor),pIC50 (M2)
"COc1cc(N2CCN(C(=O)CCCc3cccc4ncccc34)CC2)ccn1 [Example 69, 1-(4-(2-methoxypyridin-4-yl)piperazin-1-yl)-4-(quinolin-5-yl)butan-1-one]",6.00 to 7.00,< 5.00,5.00 to 6.00,,
"N#Cc1cc(N2CCN(C(=O)CCCc3cccc4ncccc34)CC2)ccn1 [Example 70, 4-(4-(4-(quinolin-5-yl)butanoyl)piperazin-1-yl)picolinonitrile]",> 7.00,6.00 to 7.00,5.00 to 6.00,,
"COc1cnc2cccc(CNCC(=O)N3C[C@H]4CC[C@@H](C3)N4c3ccncc3F)c2c1 [Example 71, 1-((1R,5S)-8-(3-fluoropyridin-4-yl)-3,8-diazabicyclo[3.2.1]octan-3-yl)-2-(((3-methoxyquinolin-5-yl)methyl)amino)ethan-1-one]",,,5.00 to 6.00,6.00 to 7.00,6.00 to 7.00
"Cc1nc2cccc(CNCC(=O)N3C[C@H]4CC[C@@H](C3)N4c3ccncc3F)c2o1 [Example 72, 1-((1R,5S)-8-(3-fluoropyridin-4-yl)-3,8-diazabicyclo[3.2.1]octan-3-yl)-2-(((2-methylbenzo[d]oxazol-7-yl)methyl)amino)ethan-1-one]",,5.00 to 6.00,< 5.00,6.00 to 7.00,
"Cc1nc2cccc(CCCC(=O)N3CCN(c4ccncc4F)CC3)c2o1 [Example 73, 1-(4-(3-fluoropyridin-4-yl)piperazin-1-yl)-4-(2-methylbenzo[d]oxazol-7-yl)butan-1-one]",6.00 to 7.00,5.00 to 6.00,< 5.00,,
"COc1cnc2cccc(CCCC(=O)N3CCN(c4ccncc4F)CC3)c2c1 [Example 74, 1-(4-(3-fluoropyridin-4-yl)piperazin-1-yl)-4-(3-methoxyquinolin-5-yl)butan-1-one]",5.00 to 6.00,< 5.00,< 5.00,,
"O=C(COCc1cccc2nccn12)N1C[C@H]2CC[C@@H](C1)N2c1ccncc1F [Example 75, 1-((1R,5S)-8-(3-fluoropyridin-4-yl)-3,8-diazabicyclo[3.2.1]octan-3-yl)-2-(imidazol[1,2-a]pyridin-5-ylmethoxy)ethan-1-one]",5.00 to 6.00,5.00 to 6.00,< 5.00,,
"COc1cnc2cccc(COCCC(=O)N3C[C@H]4CC[C@@H](C3)N4c3ccncc3F)c2c1 [Example 76, 1-((1R,5S)-8-(3-fluoropyridin-4-yl)-3,8-diazabicyclo[3.2.1]octan-3-yl)-3-((3-methoxyquinolin-5-yl)methoxy)propan-1-one]",,5.00 to 6.00,5.00 to 6.00,> 7.00,
"C[C@@H]1CN(c2ccncc2Cl)CCN1C(=O)CCCc1cccc2ncccc12 [Example 77, (R)-1-(4-(3-chloropyridin-4-yl)-2-methylpiperazin-1-yl)-4-(quinolin-5-yl)butan-1-one]",> 7.00,5.00 to 6.00,5.00 to 6.00,,
"Cc1ccncc1N1CCN(C(=O)CCCc2cccc3ncccc23)[C@H](C)C1 [Example 78, (R)-1-(2-methyl-4-(4-methylpyridin-3-yl)piperazin-1-yl)-4-(quinolin-5-yl)butan-1-one]",> 7.00,5.00 to 6.00,5.00 to 6.00,,
"O=C(CCOCc1cccc2ncsc12)N1C[C@H]2CC[C@@H](C1)N2c1ccncc1F [Example 85, 3-(benzo[d]thiazol-7-ylmethoxy)-1-((1R,5S)-8-(3-fluoropyridin-4-yl)-3,8-diazabicyclo[3.2.1]octan-3-yl)propan-1-one]",,5.00 to 6.00,5.00 to 6.00,> 7.00,
"O=C(COCc1cccc2ncsc12)N1C[C@H]2CC[C@@H](C1)N2c1ccncc1F [Example 86, 2-(benzo[d]thiazol-7-ylmethoxy)-1-((1R,5S)-8-(3-fluoropyridin-4-yl)-3,8-diazabicyclo[3.2.1]octan-3-yl)ethan-1-one]",5.00 to 6.00,5.00 to 6.00,< 5.00,,
"Cc1cc(F)cnc1N1CCN(C(=O)COCc2cccc3ncsc23)[C@@H](C)C1 [Example 88, (S)-2-(benzo[d]thiazol-7-ylmethoxy)-1-(4-(5-fluoro-3-methylpyridin-2-yl)-2-methylpiperazin-1-yl)ethan-1-one]",5.00 to 6.00,5.00 to 6.00,< 5.00,,
"Cc1cc(F)cnc1N1CCN(C(=O)CNCc2cccc3ncsc23)[C@@H](C)C1 [Example 89, (S)-2-((benzo[d]thiazol-7-ylmethyl)amino)-1-(4-(5-fluoro-3-methylpyridin-2-yl)-2-methylpiperazin-1-yl)ethan-1-one]",5.00 to 6.00,< 5.00,< 5.00,,
"C[C@H]1CN(c2ncc(F)cc2C#N)CCN1C(=O)CCCc1cccc2ncccc12 [Example 90, (S)-5-fluoro-2-(3-methyl-4-(4-(quinolin-5-yl)butanoyl)piperazin-1-yl)nicotinonitrile]",< 5.00,5.00 to 6.00,< 5.00,,
"COc1cnccc1N1CCN(C(=O)CCCc2cccc3ncccc23)[C@@H](C)C1 [Example 92, (S)-1-(4-(3-methoxypyridin-4-yl)-2-methylpiperazin-1-yl)-4-(quinolin-5-yl)butan-1-one]",> 7.00,6.00 to 7.00,5.00 to 6.00,,
"Cc1ncccc1N1CCN(C(=O)CCCc2cccc3ncccc23)[C@@H](C)C1 [Example 93, (S)-1-(2-methyl-4-(2-methylpyridin-3-yl)piperazin-1-yl)-4-(quinolin-5-yl)butan-1-one]",< 5.00,< 5.00,< 5.00,,
"O=C(CCS(=O)(=O)c1cccc2ncsc12)N1C[C@H]2CC[C@@H](C1)N2c1ccncc1F [Example 95, 3-(benzo[d]thiazol-7-ylsulfonyl)-1-((1R,5S)-8-(3-fluoropyridin-4-yl)-3,8-diazabicyclo[3.2.1]octan-3-yl)propan-1-one]",,> 7.00,6.00 to 7.00,> 7.00,
